This is an account of results in US10758534B2 (Vertex Pharmaceuticals Incorporated, priority 2014, dated 2020).

The target of the assay is T1, F508del (Homo sapiens, UniProt P13569, DEL508-508).
T1 construct: expressed in transfected cells
Nature of the assay: Protocol 1: membrane potential optical assay (FLIPR III, voltage sensing dye), identification of potentiator compounds. In kind it is cell-based. To be noted: Table 3, compounds of Table 1. The gist of the method: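 Membrane potential in forskolin-activated, temperature-rescued F508del NIH 3T3 cells is followed with a voltage-sensing dye on FLIPR III. A chloride ion gradient created at the single addition step provides the driving force, after prior compound treatment.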

T1 sequence (P13569 with tags, fused parts or gaps DEL508-508): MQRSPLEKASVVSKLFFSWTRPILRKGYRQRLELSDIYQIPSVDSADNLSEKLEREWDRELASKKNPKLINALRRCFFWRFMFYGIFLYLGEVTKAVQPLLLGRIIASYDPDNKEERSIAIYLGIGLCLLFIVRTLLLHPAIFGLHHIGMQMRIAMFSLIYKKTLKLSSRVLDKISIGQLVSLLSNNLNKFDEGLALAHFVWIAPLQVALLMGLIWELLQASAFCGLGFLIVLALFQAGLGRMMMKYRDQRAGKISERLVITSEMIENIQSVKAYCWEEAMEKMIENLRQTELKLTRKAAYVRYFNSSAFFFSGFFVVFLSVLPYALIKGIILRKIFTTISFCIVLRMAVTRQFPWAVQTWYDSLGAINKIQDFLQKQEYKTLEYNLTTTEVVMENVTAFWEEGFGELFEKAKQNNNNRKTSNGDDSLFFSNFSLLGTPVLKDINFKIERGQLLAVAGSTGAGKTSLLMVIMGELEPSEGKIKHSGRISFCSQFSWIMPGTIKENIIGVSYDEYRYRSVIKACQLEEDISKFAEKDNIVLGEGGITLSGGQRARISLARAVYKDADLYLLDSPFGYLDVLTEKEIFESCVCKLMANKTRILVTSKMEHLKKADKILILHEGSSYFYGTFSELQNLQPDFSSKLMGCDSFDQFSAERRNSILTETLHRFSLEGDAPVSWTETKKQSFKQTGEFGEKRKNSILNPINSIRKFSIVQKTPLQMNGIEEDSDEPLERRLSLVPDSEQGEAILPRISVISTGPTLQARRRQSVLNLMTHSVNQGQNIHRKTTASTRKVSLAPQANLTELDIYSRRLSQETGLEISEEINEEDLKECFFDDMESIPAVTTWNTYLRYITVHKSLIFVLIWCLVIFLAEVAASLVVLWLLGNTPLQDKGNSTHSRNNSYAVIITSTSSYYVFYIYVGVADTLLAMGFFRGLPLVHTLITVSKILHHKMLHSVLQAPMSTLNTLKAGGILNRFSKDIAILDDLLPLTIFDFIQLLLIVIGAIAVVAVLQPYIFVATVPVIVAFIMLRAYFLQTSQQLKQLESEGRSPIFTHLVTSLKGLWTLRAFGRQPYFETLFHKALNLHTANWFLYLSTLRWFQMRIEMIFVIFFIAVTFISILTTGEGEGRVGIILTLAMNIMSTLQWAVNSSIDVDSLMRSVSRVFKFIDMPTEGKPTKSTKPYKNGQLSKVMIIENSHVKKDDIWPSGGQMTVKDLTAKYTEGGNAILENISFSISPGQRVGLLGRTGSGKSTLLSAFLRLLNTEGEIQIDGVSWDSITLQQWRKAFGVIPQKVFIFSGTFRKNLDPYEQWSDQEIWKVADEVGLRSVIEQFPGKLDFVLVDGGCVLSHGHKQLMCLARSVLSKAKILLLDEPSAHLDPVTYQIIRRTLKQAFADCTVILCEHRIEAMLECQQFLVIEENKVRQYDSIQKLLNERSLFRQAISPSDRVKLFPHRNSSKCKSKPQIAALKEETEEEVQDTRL

For the compound `CC1CN(c2ncc(-c3cccc(OC(C)C)c3)cc2C(=O)NS(=O)(=O)c2cccc(N)n2)C(C)(C)C1` (stereo not drawn) [Compound 1804, N-[(6-amino-2-pyridyl)sulfonyl]-5-(3-isopropoxyphenyl)-2-(2,2,4-trimethylpyrrolidin-1-yl)pyridine-3-carboxamide], the EC30 entry is on record as “+++ (“+++” means <3 uM)”.

As to `CC(C)COc1cnn(-c2ccc(C(=O)NS(=O)(=O)c3cccc(N)n3)c(N3C[C@@H](C)CC3(C)C)n2)c1` [Compound 1443, N-[(6-amino-2-pyridyl)sulfonyl]-6-(4-isobutoxypyrazol-1-yl)-2-[(4S)-2,2,4-trimethylpyrrolidin-1-yl]pyridine-3-carboxamide], the EC30 result was “+++ (“+++” means <3 uM)”.

Consider `CC1CN(c2nc(C(C)(C)C)c(C3=CCN(C(=O)OCc4ccccc4)CC3)cc2C(=O)NS(=O)(=O)c2cccc(N)n2)C(C)(C)C1` (stereo not drawn) [Compound 1404, benzyl 4-[5-[(6-amino-2-pyridyl)sulfonylcarbamoyl]-2-tert-butyl-6-(2,2,4-trimethylpyrrolidin-1-yl)-3-pyridyl]-3,6-dihydro-2H-pyridine-1-carboxylate], for which the EC30 entry is “+++ (“+++” means <3 uM)”.

With `CCOc1cc(F)cc(-c2ccc(C(=O)NS(=O)(=O)c3cccc(N)n3)c(N3CC(C)CC3(C)C)n2)c1` (stereo not drawn) [Compound 1099, N-[(6-amino-2-pyridyl)sulfonyl]-6-(3-ethoxy-5-fluoro-phenyl)-2-(2,2,4-trimethylpyrrolidin-1-yl)pyridine-3-carboxamide], the EC30 entry is “+++ (“+++” means <3 uM)”.

On to `CC(C)Oc1ccc(-c2ccc(C(=O)NS(=O)(=O)c3cccc(N)n3)c(N3CCC(Oc4ccccc4)CC3)n2)cn1` [Compound 1080, N-[(6-amino-2-pyridyl)sulfonyl]-6-(6-isopropoxy-3-pyridyl)-2-(4-phenoxy-1-piperidyl)pyridine-3-carboxamide], for which the EC30 result is reported as “+++ (“+++” means <3 uM)”.

For the compound `CC(C)COc1cc(F)cc(-c2ccc(C(=O)NS(=O)(=O)c3cccc(N)n3)c(OC(C)CC3CCOCC3)n2)c1` (stereo not drawn) [Compound 1361, N-[(6-amino-2-pyridyl)sulfonyl]-6-(3-fluoro-5-isobutoxy-phenyl)-2-(1-methyl-2-tetrahydropyran-4-yl-ethoxy)pyridine-3-carboxamide], the EC30 result is reported as “+++ (“+++” means <3 uM)”.

For the compound `Cc1cc(C)c(Oc2nc(-c3ccc4ccn(C)c4c3)ccc2C(=O)NS(=O)(=O)c2cccc(N)n2)c(C)c1` [Compound 1056, N-[(6-amino-2-pyridyl)sulfonyl]-6-(1-methylindol-6-yl)-2-(2,4,6-trimethylphenoxy)pyridine-3-carboxamide], the EC30 result was “+++ (“+++” means <3 uM)”.

Consider `CC(C)COc1cccc(-c2ccc(C(=O)NS(=O)(=O)c3cccc(N)n3)c(N3CCCC3(C)C)n2)n1` [Compound 1011, N-[(6-amino-2-pyridyl)sulfonyl]-2-(2,2-dimethylpyrrolidin-1-yl)-6-(6-isobutoxy-2-pyridyl)pyridine-3-carboxamide], for which the EC30 entry is “+++ (“+++” means <3 uM)”.

Regarding `Cc1nc(N(C)CC(C)C)ccc1-c1ccc(C(=O)NS(=O)(=O)c2cccc(N)n2)c(N2CC(C)CC2(C)C)n1` (stereo not drawn) [Compound 827, N-[(6-amino-2-pyridyl)sulfonyl]-6-[6-[isobutyl(methyl)amino]-2-methyl-3-pyridyl]-2-(2,2,4-trimethylpyrrolidin-1-yl)pyridine-3-carboxamide], the EC30 result is listed as “+++ (“+++” means <3 uM)”.

Turning to `Cc1cc(C)c(Oc2nc(C(C)(C)C)ccc2C(=O)NS(=O)(=O)c2cnc(N)s2)c(C)c1` [Compound 1148, N-(2-aminothiazol-5-yl)sulfonyl-6-tert-butyl-2-(2,4,6-trimethylphenoxy)pyridine-3-carboxamide], the EC30 entry is given as “+++ (“+++” means <3 uM)”.

For `C[C@@H]1CN(c2nc(C3CCCOC3)ccc2C(=O)NS(=O)(=O)c2cccc(N)n2)C(C)(C)C1` (stereo partly drawn) [Compound 1632, N-[(6-amino-2-pyridyl)sulfonyl]-6-tetrahydropyran-3-yl-2-[(4S)-2,2,4-trimethylpyrrolidin-1-yl]pyridine-3-carboxamide], the EC30 result is “++ (“++” means between 3 uM and 10 uM)”.

For the compound `CCOc1ccc(-c2ccc(C(=O)NS(=O)(=O)c3cccc(N)n3)c(N3CCC(C)CC3)n2)cc1` [Compound 910, N-[(6-amino-2-pyridyl)sulfonyl]-6-(4-ethoxyphenyl)-2-(4-methyl-1-piperidyl)pyridine-3-carboxamide], the EC30 result was “+++ (“+++” means <3 uM)”.

Regarding `CC(C)=C(C)c1ccc(C(=O)NS(=O)(=O)c2cccc(N)n2)c(Oc2c(C)cc(C)cc2C)n1` [Compound 1390, N-[(6-amino-2-pyridyl)sulfonyl]-6-(1,2-dimethylprop-1-enyl)-2-(2,4,6-trimethylphenoxy)pyridine-3-carboxamide], the EC30 entry is on record as “+++ (“+++” means <3 uM)”.

As to `CC(C)COc1cc(F)cc(-c2ccc(C(=O)NS(=O)(=O)c3cccc(N)n3)c(C3=CCC(C)(C)CC3)n2)c1` [Compound 1493, N-[(6-amino-2-pyridyl)sulfonyl]-2-(4,4-dimethylcyclohexen-1-yl)-6-(3-fluoro-5-isobutoxy-phenyl)pyridine-3-carboxamide], the EC30 result is recorded as “+++ (“+++” means <3 uM)”.

Regarding `Cc1nc(OCC(C)C)ccc1-c1ccc(C(=O)NS(=O)(=O)c2cccc(N)n2)c(N2[C@H](C)CC[C@@H]2C)n1` [Compound 1537, N-[(6-amino-2-pyridyl)sulfonyl]-2-[(2R,5S)-2,5-dimethylpyrrolidin-1-yl]-6-(6-isobutoxy-2-methyl-3-pyridyl)pyridine-3-carboxamide], the EC30 entry is “+++ (“+++” means <3 uM)”.

For `COC1CCN(c2nc(C(C)(C)C)ccc2C(=O)NS(=O)(=O)c2ccc(N)cc2)CC1` [Compound 1298, N-(4-aminophenyl)sulfonyl-6-tert-butyl-2-(4-methoxy-1-piperidyl)pyridine-3-carboxamide], the EC30 entry is “++ (“++” means between 3 uM and 10 uM)”.

As to `Cc1cc(C)c(Oc2nc(C3=CCC(C)CC3)ccc2C(=O)NS(=O)(=O)c2ccc[nH]c2=O)c(C)c1` (stereo not drawn) [Compound 1052, 6-(4-methylcyclohexen-1-yl)-N-[(2-oxo-1H-pyridin-3-yl)sulfonyl]-2-(2,4,6-trimethylphenoxy)pyridine-3-carboxamide], the EC30 result is “+++ (“+++” means <3 uM)”.

Turning to `CC1CN(c2nc(-c3cc(F)cc(OC(C)C)c3)ccc2C(=O)NS(=O)(=O)c2cccc(N)n2)C(C)(C)C1` (stereo not drawn) [Compound 972, N-[(6-amino-2-pyridyl)sulfonyl]-6-(3-fluoro-5-isopropoxy-phenyl)-2-(2,2,4-trimethylpyrrolidin-1-yl)pyridine-3-carboxamide], the EC30 result is “+++ (“+++” means <3 uM)”.

Regarding `CCC1(C)CC(C)CN1c1nc(-c2cc(F)cc(OCC(C)C)c2)ccc1C(=O)NS(=O)(=O)c1cccc(N)n1` (single isomer, unassigned) [Compound 1729, N-[(6-amino-2-pyridyl)sulfonyl]-2-(2-ethyl-2,4-dimethyl-pyrrolidin-1-yl)-6-(3-fluoro-5-isobutoxy-phenyl)pyridine-3-carboxamide], the EC30 entry is on record as “+++ (“+++” means <3 uM)”.

Regarding `CC(C)(C)c1ccc(C(=O)NS(=O)(=O)c2cccc(N)n2)c(N2CCC(C(C)(C)O)CC2)n1` [Compound 1038, N-[(6-amino-2-pyridyl)sulfonyl]-6-tert-butyl-2-[4-(1-hydroxy-1-methyl-ethyl)-1-piperidyl]pyridine-3-carboxamide], the EC30 result is “++ (“++” means between 3 uM and 10 uM)”.

Consider `CCOc1cccc2c1CN(Cc1c(C)cc(C)cc1C)C2(C)C(=O)NS(=O)(=O)c1cccnc1` (stereo not drawn) [Compound 1669, 4-ethoxy-1-methyl-N-(3-pyridylsulfonyl)-2-[(2,4,6-trimethylphenyl)methyl]isoindoline-1-carboxamide], for which the EC30 entry is recorded as “+++ (“+++” means <3 uM)”.

As for `CCC1CCC(C)N1c1nc(-c2cc(F)cc(OCC(C)C)c2)ccc1C(=O)NS(=O)(=O)c1cccc(N)n1` (stereo not drawn) [Compound 1222, N-[(6-amino-2-pyridyl)sulfonyl]-2-(2-ethyl-5-methyl-pyrrolidin-1-yl)-6-(3-fluoro-5-isobutoxy-phenyl)pyridine-3-carboxamide], the EC30 result is listed as “+++ (“+++” means <3 uM)”.

Regarding `CC(C)COc1cc(F)cc(-c2ccc(C(=O)NS(=O)(=O)c3cccc(N)n3)c(N3CCCC4(CC4)C3)n2)c1` [Compound 953, N-[(6-amino-2-pyridyl)sulfonyl]-2-(7-azaspiro[2.5]octan-7-yl)-6-(3-fluoro-5-isobutoxy-phenyl)pyridine-3-carboxamide], the EC30 entry is given as “+++ (“+++” means <3 uM)”.

With `CC(C)COc1cc(F)cc(-c2ccc(C(=O)NS(=O)(=O)c3cccc(N)n3)c(N3CCC4(CC3)CC4)n2)c1` [Compound 973, N-[(6-amino-2-pyridyl)sulfonyl]-2-(6-azaspiro[2.5]octan-6-yl)-6-(3-fluoro-5-isobutoxy-phenyl)pyridine-3-carboxamide], the EC30 result is reported as “+++ (“+++” means <3 uM)”.

As for `Cc1cc(C)c(Oc2nc(C3CCCCCC3)ccc2C(=O)NS(=O)(=O)c2cccc(N)n2)c(C)c1` [Compound 1376, N-[(6-amino-2-pyridyl)sulfonyl]-6-cycloheptyl-2-(2,4,6-trimethylphenoxy)pyridine-3-carboxamide], the EC30 entry is on record as “+++ (“+++” means <3 uM)”.

`CC(C)COc1cc(F)cc(-c2ccc(C(=O)NS(=O)(=O)N3CC4C[C@H]3CO4)c(N3C[C@@H](C)CC3(C)C)n2)c1` [Compound 1789, 6-(3-fluoro-5-isobutoxy-phenyl)-N—[[(4S)-2-oxa-5-azabicyclo[2.2.1]heptan-5-yl]sulfonyl]-2-[(4S)-2,2,4-trimethylpyrrolidin-1-yl]pyridine-3-carboxamide]: the EC30 entry is reported as “+++ (“+++” means <3 uM)”.

Consider `COc1ccc(-c2ccc(C(=O)NS(=O)(=O)c3cccnc3N)c(N3C[C@@H](C)CC3(C)C)n2)c(C)n1` [Compound 1866, N-[(2-amino-3-pyridyl)sulfonyl]-6-(6-methoxy-2-methyl-3-pyridyl)-2-[(4S)-2,2,4-trimethylpyrrolidin-1-yl]pyridine-3-carboxamide], for which the EC30 entry is “+++ (“+++” means <3 uM)”.
